PubChem BioAssay AID2842 (Southern Research Institute, 2010)
Converted amounts (≈) assume the structure as drawn.

System: M. tuberculosis H37Rv growth inhibition
Experiment: Mycobacterium tuberculosis H37Rv growth inhibition, putative kinase inhibitor library, confirmatory dose response (AID 2842);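 further: bacteria incubated one week before Alamar blue readout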

Row | SMILES | IC90 [µg/mL]
1 | O=C(Nc1nnc(-c2ccccc2)o1)c1ccco1 | 2.78 (≈ 10.9 µM)
2 | CSc1ccc2nc(Nc3cccc(C)c3C)sc2c1 | 18.8 (≈ 62.7 µM)
3 | COc1ccccc1C(=O)Nc1nnc(-c2ccc(Cl)cc2)o1 | 3.86 (≈ 11.7 µM)
4 | CCCCN1C(=O)c2cccc3c(NC(=O)c4ccc([N+](=O)[O-])s4)ccc1c23 | 22.7 (≈ 57.3 µM)
5 | CCOC(=O)c1ccc2nc(Nc3nc4ccc(OC)cc4s3)sc2c1 | 29 (≈ 75.3 µM)
6 | Cc1ccccc1C(=O)Nc1nnc(-c2cccnc2)o1 | 50.1 (≈ 179 µM)
7 | CSc1cccc(-c2nnc(NC(=O)/C=C/c3cccs3)o2)c1 | 4.49 (≈ 13.1 µM)
8 | CC(=O)c1cccc(Nc2nc(Nc3ccc(F)c(Cl)c3)nc(N3CCOCC3)n2)c1 | 8.38 (≈ 18.9 µM)
9 | COC(=O)c1c(NC(=O)c2ccccc2Cl)sc2c1CC(C)(C)NC2(C)C | 44.8 (≈ 110 µM)
10 | O=C(Nc1nnc(-c2cc(Cl)ccc2Cl)o1)c1c(F)cccc1F | 3.48 (≈ 9.4 µM)
11 | O=C(Nc1nnc(-c2ccc(Br)cc2)o1)c1cc(Cl)ccc1Cl | 2.67 (≈ 6.46 µM)
12 | O=C(Nc1nnc(-c2cc(Cl)ccc2Cl)o1)c1ccccc1F | 0.43 (≈ 1.22 µM)
13 | CC(C)(C)c1ccc(C(=O)Nc2nnc(-c3ccncc3)o2)cc1 | 1.18 (≈ 3.66 µM)
14 | COc1ccc(C(=O)Oc2cccc(Nc3ncnc4ccccc34)c2)cc1 | 15.1 (≈ 40.5 µM)
15 | O=C(Nc1nnc(-c2ccc3c(c2)CCCC3)o1)c1ccc([N+](=O)[O-])o1 | 10.6 (≈ 29.9 µM)
16 | OCCN1CCN(c2nc(Nc3cccc(Cl)c3)c3cnn(-c4ccccc4)c3n2)CC1 | 0.73 (≈ 1.62 µM)
17 | CCOc1cc(-c2nnc(NC(=O)c3cccs3)o2)cc(OCC)c1OCC | 3.02 (≈ 7.49 µM)
18 | COc1cccc2sc(N(CCCn3ccnc3)C(=O)c3ccco3)nc12 | 12.4 (≈ 32.5 µM)
19 | COc1ccc(-c2nnc3c4ccccc4n(Cc4cccc(C)c4)cc2-3)cc1 | 13.4 (≈ 35.3 µM)
20 | Cc1ccc(-c2nnc(NC(=O)c3ccc(Br)s3)o2)c(C)c1 | 2.17 (≈ 5.74 µM)

Row | SMILES | IC90 [µg/mL]
21 | Cc1ccc(N2C(=O)C(Cl)=C(Nc3cc(Cl)ccc3O)C2=O)cc1 | 25.4 (≈ 69.8 µM)
22 | COc1cc(/C=C(\C#N)c2nc(-c3ccccc3)cs2)cc([N+](=O)[O-])c1O | 54.6 (≈ 144 µM)
23 | O=c1cnnc(N/N=C/c2ccccc2O)[nH]1 | 0.46 (≈ 1.99 µM)
24 | COc1cccc2sc(N(CCCn3ccnc3)C(=O)c3cccs3)nc12 | 5.7 (≈ 14.3 µM)
25 | O=C(Nc1nnc(-c2cc(Cl)ccc2Cl)o1)c1cccc(Cl)c1 | 31.7 (≈ 86.1 µM)
26 | O=C(Nc1nnc(-c2ccc3c(c2)CCCC3)o1)c1ccccc1Cl | 1.11 (≈ 3.14 µM)
27 | CCc1ccc(-c2nnc3c4cc(OC)c(OC)cc4n(Cc4ccccc4F)cc2-3)cc1 | 8.11 (≈ 18.4 µM)
28 | Cc1nc2c(ccc3nc(NC(=O)c4ccco4)sc32)s1 | 35 (≈ 111 µM)
29 | O=C(CN1CCOCC1)Nc1ncc(Cc2cc(Cl)cc(Cl)c2)s1 | 14.9 (≈ 38.5 µM)
30 | CC(C)COc1ccc(S(=O)(=O)Nc2ccc3c(c2)C(=O)Nc2ccccc2O3)cc1 | 6.99 (≈ 15.9 µM)
31 | CC(C)Cn1c(N2CCN(Cc3ccc(Cl)c(Cl)c3)CC2)nc2c1c(=O)[nH]c(=O)n2C | 1.43 (≈ 3.07 µM)
32 | O=c1c2ccccc2oc2cc(O)ccc12 | 50 (≈ 236 µM)
33 | O=C(Nc1nnc(C2=COCCO2)o1)c1ccc(Oc2ccccc2)cc1 | 16.8 (≈ 46 µM)
34 | COc1cc(OC)cc(C(=O)Nc2nnc(-c3cccc(SC)c3)o2)c1 | 12.4 (≈ 33.5 µM)
35 | Cc1ccc(C2C=C(c3ccc(Cl)cc3)Nc3ncnn32)cc1 (stereo not drawn) | 6.94 (≈ 21.5 µM)
36 | O=C(NNc1nc2c(F)cc(F)cc2s1)c1coc2ccccc2c1=O | 3.33 (≈ 8.92 µM)
37 | O=C(Nc1cccc(Br)c1)c1ccc([N+](=O)[O-])s1 | < 0.2
38 | O=C(CC(SCc1ccco1)c1cccc([N+](=O)[O-])c1)c1ccco1 (stereo not drawn) | < 0.2
39 | COc1cc2c3nnc(-c4ccc(C)cc4)c-3cn(Cc3ccc(Cl)cc3)c2cc1OC | 4.8 (≈ 10.8 µM)
40 | COc1ccc2sc(Nc3nnc(-c4ccco4)o3)nc2c1 | 80 (≈ 255 µM)

Row | SMILES | IC90 [µg/mL]
41 | COc1ccc(-c2noc(-c3cc4ccccc4oc3=Nc3ccc(Br)cc3)n2)cc1 | 13.3 (≈ 28.1 µM)
42 | Cc1cc(C)c2nc(NNC(=O)c3ccccc3F)sc2c1 | 3.08 (≈ 9.77 µM)
43 | O=C(NCCSc1c[nH]c2ccccc12)c1cc2ccccc2oc1=O | 1.58 (≈ 4.34 µM)
44 | CN1C(=O)c2cccc(NC(=O)c3ccc([N+](=O)[O-])s3)c2C1=O | 25.1 (≈ 75.7 µM)
45 | Cc1ccc(-n2nnc3c(SCC(=O)N4CCOCC4)ncnc32)cc1 | 12.3 (≈ 33.3 µM)
46 | Fc1cccc2sc(Nc3nnc(-c4ccco4)o3)nc12 | 2.08 (≈ 6.88 µM)
47 | O=C1N/C(=N\N=C\c2ccccc2O)SC1Cc1ccc(F)cc1 (stereo not drawn) | < 0.2
48 | CCc1cccc2sc(N(CCCn3ccnc3)C(=O)c3ccc(OC)c(OC)c3)nc12 | 13.9 (≈ 30.9 µM)
49 | Cc1ccc(Cl)cc1N1CCN(CC(O)COc2ccccc2[N+](=O)[O-])CC1 (stereo not drawn) | 13 (≈ 32.1 µM)
50 | O=C(Nc1nc2c(s1)CCc1ccccc1-2)c1cccc(Br)c1 | 16.8 (≈ 43.6 µM)
51 | COC(=O)c1ccc(NC(=O)CSc2nc(-c3cccc(C)c3)ns2)cc1 | < 0.2
52 | COc1ccc2nc(Nc3nc4c(s3)CCCC4)sc2c1 | 20.7 (≈ 65.1 µM)
53 | COc1ccc(OC)c2sc(N(CCCn3ccnc3)C(=O)c3ccco3)nc12 | 6.7 (≈ 16.2 µM)
54 | Cc1ccc(Nc2nc(N3CCN(c4ccc(F)cc4)CC3)nc3nccnc23)cc1C | 22.8 (≈ 53 µM)
55 | COc1ccc(C)c2sc(NNC(=O)c3nc4ccccc4s3)nc12 | 38 (≈ 103 µM)
56 | O=C(OCc1ccco1)c1cc2ccccc2oc1=O | 20.4 (≈ 75.3 µM)
57 | CC(C)OC(=O)c1ccc(NC(=O)C2COc3ccccc3O2)cc1 (stereo not drawn) | 7.2 (≈ 21.1 µM)
58 | CCOC(=O)N1CCc2c(sc(NC(C)=O)c2C(=O)OC)C1 | 14 (≈ 43 µM)
